Key:
[1] = target: T1, DDR2 (Homo sapiens, UniProt Q16832); assay: DDR2 binding assay (LanthaScreen Europium Kinase Binding assay); parameters: purchased Life Technologies; settings: binding assay, 5 nM DDR2, 10 nM Kinase Tracer 178; Ki from IC50 by Cheng-Prusoff; read-out: Ki DDR2
T1 sequence (Q16832 22-855): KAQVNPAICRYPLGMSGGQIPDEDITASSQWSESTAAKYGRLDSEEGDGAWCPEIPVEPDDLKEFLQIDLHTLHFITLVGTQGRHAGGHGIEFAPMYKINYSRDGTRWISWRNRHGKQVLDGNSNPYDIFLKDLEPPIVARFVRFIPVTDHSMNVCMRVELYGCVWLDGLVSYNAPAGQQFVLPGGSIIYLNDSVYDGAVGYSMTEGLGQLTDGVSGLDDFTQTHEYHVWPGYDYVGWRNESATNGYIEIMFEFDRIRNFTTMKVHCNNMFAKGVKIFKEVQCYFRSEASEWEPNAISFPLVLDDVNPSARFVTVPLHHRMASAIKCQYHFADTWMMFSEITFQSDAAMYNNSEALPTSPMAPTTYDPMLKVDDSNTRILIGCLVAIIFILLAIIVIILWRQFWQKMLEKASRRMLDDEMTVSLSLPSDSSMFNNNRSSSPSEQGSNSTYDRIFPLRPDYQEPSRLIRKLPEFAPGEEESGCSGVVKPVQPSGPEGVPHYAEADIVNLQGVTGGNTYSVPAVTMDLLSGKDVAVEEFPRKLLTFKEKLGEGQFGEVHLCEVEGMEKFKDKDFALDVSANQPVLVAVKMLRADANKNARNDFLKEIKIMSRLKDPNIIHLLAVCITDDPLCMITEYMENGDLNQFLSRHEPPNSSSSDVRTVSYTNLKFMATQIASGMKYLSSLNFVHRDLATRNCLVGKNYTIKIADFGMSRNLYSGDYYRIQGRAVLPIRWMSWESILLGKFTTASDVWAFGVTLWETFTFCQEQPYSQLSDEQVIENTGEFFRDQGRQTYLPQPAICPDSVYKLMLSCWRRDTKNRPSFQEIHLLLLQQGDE
Procedure, shortened: (§1)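 TR-FRET tracer-displacement format: 665/615 nm emission ratio (340 nm excitation) gave IC50 by 4-parameter fit, then Ki via Cheng-Prusoff. Each kinase at 5 nM with 2 nM Eu-anti-GST antibody and Tracer 178 (DDR1 20 nM, DDR2 10 nM), 1 h, room temperature, HEPES pH 7.5 buffer.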

[2] = target: T2, DDR1 (Homo sapiens, UniProt Q08345); assay: DDR1 cell based assay (PathHunter U2OS DDR1 assay); parameters: host or cells: U2OS-DDR1 (PathHunter); settings: U2OS-DDR1 cells, bovine Type II Collagen 20 μg/ml
Procedure, shortened: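 Receptor activation measured by enzyme-fragment complementation luminescence in engineered U2OS cells. Compound added 30 min before overnight challenge with 20 μg/ml bovine collagen II; data scaled between vehicle and collagen-stimulated controls, IC50 derived by four-parameter variable-slope fitting.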

[3] = target: T2, DDR1; assay: DDR1 binding assay (LanthaScreen Europium Kinase Binding assay); parameters: purchased Carna Biosciences; settings: binding assay, 5 nM DDR1, 20 nM Kinase Tracer 178; Ki from IC50 by Cheng-Prusoff; read-out: Ki DDR1
Procedure, shortened: as §1

T2 sequence (Q08345 19-913): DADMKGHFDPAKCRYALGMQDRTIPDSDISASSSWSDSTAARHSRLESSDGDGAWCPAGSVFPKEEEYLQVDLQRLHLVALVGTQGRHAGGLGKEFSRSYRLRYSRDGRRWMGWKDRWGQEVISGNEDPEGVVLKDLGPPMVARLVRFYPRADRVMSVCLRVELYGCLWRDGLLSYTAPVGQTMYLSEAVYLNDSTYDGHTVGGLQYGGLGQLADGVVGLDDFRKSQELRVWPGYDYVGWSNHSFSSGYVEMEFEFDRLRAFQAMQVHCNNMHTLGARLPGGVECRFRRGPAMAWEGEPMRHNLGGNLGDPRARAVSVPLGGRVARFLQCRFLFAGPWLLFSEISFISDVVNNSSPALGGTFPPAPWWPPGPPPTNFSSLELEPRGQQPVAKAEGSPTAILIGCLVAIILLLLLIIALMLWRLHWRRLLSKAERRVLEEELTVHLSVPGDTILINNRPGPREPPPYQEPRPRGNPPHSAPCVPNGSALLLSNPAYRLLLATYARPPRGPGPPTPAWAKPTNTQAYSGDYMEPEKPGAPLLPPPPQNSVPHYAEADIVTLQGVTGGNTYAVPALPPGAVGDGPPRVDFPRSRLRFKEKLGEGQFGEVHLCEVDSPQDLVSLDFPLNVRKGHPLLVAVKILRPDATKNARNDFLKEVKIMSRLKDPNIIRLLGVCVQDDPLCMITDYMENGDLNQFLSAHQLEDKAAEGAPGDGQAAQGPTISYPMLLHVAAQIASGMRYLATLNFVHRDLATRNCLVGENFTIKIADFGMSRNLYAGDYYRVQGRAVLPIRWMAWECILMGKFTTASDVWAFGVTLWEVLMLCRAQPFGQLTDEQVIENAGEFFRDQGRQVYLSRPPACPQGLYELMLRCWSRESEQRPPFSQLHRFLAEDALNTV

SMILES | Ki [1] | IC50 [2] | Ki [3]
CN(C)[C@@H]1CCN(Cc2cc(NC(=O)c3csc4c3CCN(Cc3cnc5cnccn35)C4)cc(C(F)(F)F)c2)C1 [Example 160, (R)-N-(3-((3-(dimethylamino)pyrrolidin-1-yl)methyl)-5-(trifluoromethyl)phenyl)-6-(imidazo[1,2-a]pyrazin-3-ylmethyl)-4,5,6,7-tetrahydrothieno[2,3-c]pyridine-3-carboxamide] | < 25 nM | 50 to 80 nM | < 25 nM
CN(C)CC1CCN(Cc2cc(NC(=O)c3csc4c3CCN(C(=O)c3cnc5ccccn35)C4)cc(C(F)(F)F)c2)C1 (stereo not drawn) [Example 55, N-(3-((3-((dimethylamino)methyl)pyrrolidin-1-yl)methyl)-5-(trifluoromethyl)phenyl)-6-(imidazo[1,2-a]pyridine-3-carbonyl)-4,5,6,7-tetrahydrothieno[2,3-c]pyridine-3-carboxamide] | < 25 nM | 50 to 80 nM | < 25 nM
Cc1ccc(-n2nc(C(C)(C)C)cc2NC(=O)c2csc3c2CCN(C(=O)c2cnc4ccccn24)C3)cc1 [Example 2, N-(3-(tert-butyl)-1-(p-tolyl)-1H-pyrazol-5-yl)-6-(imidazo[1,2-a]pyridine-3-carbonyl)-4,5,6,7-tetrahydrothieno[2,3-c]pyridine-3-carboxamide] | < 25 nM | 25 to 50 nM | < 25 nM
Cc1n[nH]c2ncc(CN3CCc4c(C(=O)Nc5cc(C6CC6)on5)csc4C3)cc12 [Example 148, N-(5-cyclopropylisoxazol-3-yl)-6-((3-methyl-1H-pyrazolo[3,4-b]pyridin-5-yl)methyl)-4,5,6,7-tetrahydrothieno[2,3-c]pyridine-3-carboxamide] | < 25 nM | < 25 nM | < 25 nM
COc1ncc(NC(=O)c2csc3c2CCN(C(=O)c2cnn4ccncc24)C3)cc1C(F)(F)F [Example 121, N-(6-methoxy-5-(trifluoromethyl)pyridin-3-yl)-6-(pyrazolo[1,5-a]pyrazine-3-carbonyl)-4,5,6,7-tetrahydrothieno[2,3-c]pyridine-3-carboxamide] | < 25 nM | 50 to 80 nM | < 25 nM
O=C(Nc1cncc(C(F)(F)F)c1)c1csc2c1CCN(Cc1cnn3ccncc13)C2 [Example 154, 6-(pyrazolo[1,5-a]pyrazin-3-ylmethyl)-N-(5-(trifluoromethyl)pyridin-3-yl)-4,5,6,7-tetrahydrothieno[2,3-c]pyridine-3-carboxamide] | < 25 nM | 50 to 80 nM | < 25 nM
CN1CCN(c2ccc3ncc(C(=O)N4CCc5c(C(=O)Nc6cc(C(C)(C)C)no6)csc5C4)n3c2)CC1 [Example 168, N-(3-(tert-butyl)isoxazol-5-yl)-6-(6-(4-methylpiperazin-1-yl)imidazo[1,2-a]pyridine-3-carbonyl)-4,5,6,7-tetrahydrothieno[2,3-c]pyridine-3-carboxamide] | < 25 nM | 25 to 50 nM | < 25 nM
Cn1nc(C(C)(C)C)cc1NC(=O)c1csc2c1CCN(C(=O)c1cnc3ccc(F)cn13)C2 [Example 81, N-(3-(tert-butyl)-1-methyl-1H-pyrazol-5-yl)-6-(6-fluoroimidazo[1,2-a]pyridine-3-carbonyl)-4,5,6,7-tetrahydrothieno[2,3-c]pyridine-3-carboxamide] | < 25 nM | 50 to 80 nM | < 25 nM
CN(C)C1CCN(Cc2cc(NC(=O)c3csc4c3CCN(C(=O)c3cnc5ccccn35)C4)cc(C(F)(F)F)c2)C1 (stereo not drawn) [Example 56, N-(3-((3-(dimethylamino)pyrrolidin-1-yl)methyl)-5-(trifluoromethyl)phenyl)-6-(imidazo[1,2-a]pyridine-3-carbonyl)-4,5,6,7-tetrahydrothieno[2,3-c]pyridine-3-carboxamide] | < 25 nM | < 25 nM | < 25 nM
CC(C)Cc1cc(NC(=O)c2csc3c2CCN(C(=O)c2cnc4ccccn24)C3)n(C)n1 [Example 43, 6-(imidazo[1,2-a]pyridine-3-carbonyl)-N-(3-isobutyl-1-methyl-1H-pyrazol-5-yl)-4,5,6,7-tetrahydrothieno[2,3-c]pyridine-3-carboxamide] | < 25 nM | 25 to 50 nM | < 25 nM
O=C(Nc1cc(OCCN2CCCC2)cc(C(F)(F)F)c1)c1csc2c1CCN(Cc1cnc3[nH]ncc3c1)C2 [Example 164, 6-((1H-pyrazolo[3,4-b]pyridin-5-yl)methyl)-N-(3-(2-(pyrrolidin-1-yl)ethoxy)-5-(trifluoromethyl)phenyl)-4,5,6,7-tetrahydrothieno[2,3-c]pyridine-3-carboxamide] | < 25 nM | < 25 nM | < 25 nM
CC(C)(C)c1cc(NC(=O)c2csc3c2CCN(C(=O)c2cnc4ccccn24)C3)no1 [Example 33, N-(5-(tert-butyl)isoxazol-3-yl)-6-(imidazo[1,2-a]pyridine-3-carbonyl)-4,5,6,7-tetrahydrothieno[2,3-c]pyridine-3-carboxamide] | < 25 nM | 25 to 50 nM | < 25 nM

Second part, the compound after the results:

Ki [1] | IC50 [2] | Ki [3] | SMILES
< 25 nM | 50 to 80 nM | < 25 nM | O=C(Nc1cc(C(F)(F)F)ccn1)c1csc2c1CCN(C(=O)c1cnc3ccccn13)C2 [Example 29, 6-(imidazo[1,2-a]pyridine-3-carbonyl)-N-(4-(trifluoromethyl)pyridin-2-yl)-4,5,6,7-tetrahydrothieno[2,3-c]pyridine-3-carboxamide]
< 25 nM | < 25 nM | < 25 nM | O=C(Nc1cncc(C(F)(F)F)c1)c1csc2c1CCN(C(=O)c1cnc3cc(F)ccn13)C2 [Example 144, 6-(7-fluoroimidazo[1,2-a]pyridine-3-carbonyl)-N-(5-(trifluoromethyl)pyridin-3-yl)-4,5,6,7-tetrahydrothieno[2,3-c]pyridine-3-carboxamide]
< 25 nM | 50 to 80 nM | < 25 nM | CC(F)(F)c1cncc(NC(=O)c2csc3c2CCN(C(=O)c2cnc4ccccn24)C3)c1 [Example 115, N-(5-(1,1-difluoroethyl)pyridin-3-yl)-6-(imidazo[1,2-a]pyridine-3-carbonyl)-4,5,6,7-tetrahydrothieno[2,3-c]pyridine-3-carboxamide]
< 25 nM | 50 to 80 nM | < 25 nM | O=C(Nc1cncc(C(F)(F)F)c1)c1csc2c1CCN(C(=O)c1cnc3n1CCCN3)C2 [Example 120, 6-(5,6,7,8-tetrahydroimidazo[1,2-a]pyrimidine-3-carbonyl)-N-(5-(trifluoromethyl)pyridin-3-yl)-4,5,6,7-tetrahydrothieno[2,3-c]pyridine-3-carboxamide]
< 25 nM | < 25 nM | < 25 nM | Cn1ccn2ncc(C(=O)N3CCc4c(C(=O)Nc5cncc(C(F)(F)F)c5)csc4C3)c12 [Example 143, 6-(1-methyl-1H-imidazo[1,2-b]pyrazole-7-carbonyl)-N-(5-(trifluoromethyl)pyridin-3-yl)-4,5,6,7-tetrahydrothieno[2,3-c]pyridine-3-carboxamide]
< 25 nM | 25 to 50 nM | < 25 nM | CN(C)CCOc1cc(NC(=O)c2csc3c2CCN(C(=O)c2cnc4ccccn24)C3)cc(C(F)(F)F)c1 [Example 25, N-(3-(2-(dimethylamino)ethoxy)-5-(trifluoromethyl)phenyl)-6-(imidazo[1,2-a]pyridine-3-carbonyl)-4,5,6,7-tetrahydrothieno[2,3-c]pyridine-3-carboxamide]
< 25 nM | < 25 nM | < 25 nM | O=C(Nc1cc(F)cc(OC(F)(F)F)c1)c1csc2c1CCN(C(=O)c1cnc3ccccn13)C2 [Example 10, N-(3-fluoro-5-(trifluoromethoxy)phenyl)-6-(imidazo[1,2-a]pyridine-3-carbonyl)-4,5,6,7-tetrahydrothieno[2,3-c]pyridine-3-carboxamide]
< 25 nM | < 25 nM | < 25 nM | O=C(Nc1cncc(C(F)(F)F)c1)c1csc2c1CCN(C(=O)c1cnn3ccccc13)C2 [Example 124, 6-(pyrazolo[1,5-a]pyridine-3-carbonyl)-N-(5-(trifluoromethyl)pyridin-3-yl)-4,5,6,7-tetrahydrothieno[2,3-c]pyridine-3-carboxamide]
